The values below come from ChEMBL document CHEMBL4229531, “Synthesis and evaluation of 1,2,3,4-tetrahydro-1-acridone analogues as potential dual inhibitors for amyloid-beta and tau aggregation” (Bioorg Med Chem, 2018).

Data set [1] is described as follows: Binding affinity to recombinant full length tau 0N4R (unknown origin) expressed in Escherichia coli by surface plasmon resonance assay. The arrangement: species or system Homo sapiens.
Data set [2] concerns the target T1, Amyloid-beta precursor protein (Homo sapiens, UniProt P05067). Briefly: Inhibition of self-induced amyloid beta (1 to 42) (unknown origin) aggregation at 20 uM after 72 hrs by thioflavin T assay relative to control.
For data set [3], the species on record is Homo sapiens. The experiment in a line: Inhibition of recombinant full length tau 0N4R (unknown origin) aggregation expressed in Escherichia coli at 20 uM after 72 hrs by thioflavin S assay relative to control.
A short description of data set [4]: Permeability of the compound at 100 ug/ml after 10 hrs by artificial membrane permeability assay. The format is ADME. Particulars: PAMPA; read-out: permeability.
For data set [5], the target named is T1, Amyloid-beta precursor protein. The experiment in a line: Inhibition of self-induced amyloid beta (1 to 42) (unknown origin) fibril formation at 20 uM after 24 hrs by uranyl acetate staining-based transmission electron microscopic method.
Data set [6] deals with Microtubule-associated protein tau (Mus musculus), P10637 [P243L]. Briefly: Inhibition of congo red-induced EGFP-tagged Tau P301L mutant (unknown origin) aggregation expressed in HEK293T cells at 0.5 uM pretreated for 30 mins followed by congo red addition and measured after 24 hrs by DAPI staining-based fluorescence assay. The format is cell-based. Particulars: Homo sapiens.

The species entered for data set [7] is Homo sapiens. The experiment in a line: Inhibition of fibril formation of recombinant full length tau 0N4R (unknown origin) expressed in Escherichia coli at 20 uM after 24 hrs by uranyl acetate staining-based transmission electron microscopic method.
For data set [8], the target named is T1, Amyloid-beta precursor protein. Briefly: Inhibition of amyloid beta (1 to 42) (unknown origin) beta-sheet formation at 20 uM after 24 hrs by CD spectroscopic method.
For data set [9] the target is unchanged. The experiment in a line: Binding affinity to amyloid beta (1 to 42) (unknown origin) by surface plasmon resonance assay.
Data set [10] has as its system Microtubule-associated protein tau (Mus musculus), P10637 [P243L]. The experiment in a line: Inhibition of congo red-induced EGFP-tagged Tau P301L mutant (unknown origin) aggregation expressed in HEK293T cells at 1 uM pretreated for 30 mins followed by congo red addition and measured after 24 hrs by DAPI staining-based fluorescence assay. The class given is cell-based. Conditions: Homo sapiens.

The next data set deals with HEK-293T. Briefly: Effect on proliferation of HEK293T cells transfected with EGFP-tagged Tau P301L mutant at 1 uM. Particulars: human. The class given is cell-based.

Calls of active or inactive are those of the source. The rule behind the calls is not given here.

T1 sequence (P05067 whole entry): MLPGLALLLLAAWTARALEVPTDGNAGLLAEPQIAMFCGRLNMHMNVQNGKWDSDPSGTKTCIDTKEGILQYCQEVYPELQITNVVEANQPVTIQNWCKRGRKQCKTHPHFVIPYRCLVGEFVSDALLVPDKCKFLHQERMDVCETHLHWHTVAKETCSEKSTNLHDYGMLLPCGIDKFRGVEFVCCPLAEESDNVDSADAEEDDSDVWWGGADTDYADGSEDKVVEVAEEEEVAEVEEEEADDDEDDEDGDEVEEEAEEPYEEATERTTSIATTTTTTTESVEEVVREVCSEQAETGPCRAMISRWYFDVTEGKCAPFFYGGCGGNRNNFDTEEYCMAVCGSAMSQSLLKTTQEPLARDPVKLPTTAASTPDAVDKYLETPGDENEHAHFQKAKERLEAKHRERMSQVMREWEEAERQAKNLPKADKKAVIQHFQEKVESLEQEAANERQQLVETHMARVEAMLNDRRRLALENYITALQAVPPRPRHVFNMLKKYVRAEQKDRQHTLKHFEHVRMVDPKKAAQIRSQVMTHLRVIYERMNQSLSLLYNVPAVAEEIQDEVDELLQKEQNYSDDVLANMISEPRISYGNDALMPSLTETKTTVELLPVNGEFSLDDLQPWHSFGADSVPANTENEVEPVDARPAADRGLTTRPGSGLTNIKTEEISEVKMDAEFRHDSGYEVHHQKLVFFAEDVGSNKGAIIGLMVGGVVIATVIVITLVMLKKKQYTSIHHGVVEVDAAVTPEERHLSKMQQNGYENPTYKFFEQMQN
Microtubule-associated protein tau (Mus musculus), P10637 [P243L], sequence (P10637 whole entry P243L): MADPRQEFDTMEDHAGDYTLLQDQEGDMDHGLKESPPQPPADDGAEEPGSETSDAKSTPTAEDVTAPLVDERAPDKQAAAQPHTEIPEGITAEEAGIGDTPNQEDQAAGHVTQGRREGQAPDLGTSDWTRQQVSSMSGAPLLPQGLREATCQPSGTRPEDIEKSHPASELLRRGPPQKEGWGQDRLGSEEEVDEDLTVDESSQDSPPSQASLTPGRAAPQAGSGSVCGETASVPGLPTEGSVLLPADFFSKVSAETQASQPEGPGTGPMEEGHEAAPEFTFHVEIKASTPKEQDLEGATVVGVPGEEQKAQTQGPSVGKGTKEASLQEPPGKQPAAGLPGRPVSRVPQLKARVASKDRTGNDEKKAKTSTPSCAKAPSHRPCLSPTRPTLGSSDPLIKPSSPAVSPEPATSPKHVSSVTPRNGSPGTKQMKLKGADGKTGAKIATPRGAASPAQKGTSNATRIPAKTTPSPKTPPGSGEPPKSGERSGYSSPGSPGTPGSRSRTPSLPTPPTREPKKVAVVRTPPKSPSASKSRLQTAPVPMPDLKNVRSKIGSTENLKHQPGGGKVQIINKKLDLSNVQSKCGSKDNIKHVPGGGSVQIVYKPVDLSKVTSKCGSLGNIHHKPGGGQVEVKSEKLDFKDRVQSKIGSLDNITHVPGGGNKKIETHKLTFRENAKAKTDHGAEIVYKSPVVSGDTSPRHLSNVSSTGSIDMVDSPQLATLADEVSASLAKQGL

On to `CN(C)c1ccc2nc3ccc(N(C)C)cc3[s+]c2c1` [METHYLENE BLUE ANHYDROUS], for which, in [1], the dissociation constant Kd was found to be 28.2 µM.
On to `C[n+]1c2c(c(N)c3ccccc31)C(=O)/C(=C\c1cccc([N+](=O)[O-])c1)CC2.[I-]`, for which the inhibition in data set [2] is 94.4%; in the data set listed under Homo sapiens [3] it was 32%. For the same molecule, in data set [4], the Papp at 10 h, 100 ug/ml worked out at 1.8 ×10⁻⁶ cm/s.
For `O=C1/C(=C/c2cccc(F)c2)CCc2nc3ccccc3cc21` the same measures were 7.2%, 14.7% and 17.2 ×10⁻⁶ cm/s.
The like results for `C[n+]1c2c(c(N)c3ccccc31)C(=O)/C(=C\c1cccc(F)c1)CC2.[I-]` were, in that order, 89.1%, 23.3% and 2.7 ×10⁻⁶ cm/s.
For `Nc1c2c(nc3ccccc13)CCC(Cc1ccccc1)C2=O` (stereo not given) the same measures were -4%, 10% and 13.9 ×10⁻⁶ cm/s.
With `C[n+]1c2c(c(N)c3ccccc31)C(=O)/C(=C\c1ccccc1)CC2.[I-]`, the inhibition in data set [2] was 97.6%; in the data set listed under Homo sapiens [3], 7.2%. The Papp at 10 h, 100 ug/ml in data set [4] was 1.8 ×10⁻⁶ cm/s.
The like results for `Nc1c2c(nc3ccccc13)CC/C(=C\c1ccccc1Cl)C2=O` were, in that order, 14.1%, -3.6% and 7.4 ×10⁻⁶ cm/s.
For `COc1ccc(/C=C2\CCc3nc4ccccc4c(N)c3C2=O)cc1` the same measures were -2%, 43.4% and 10.5 ×10⁻⁶ cm/s.
Turning to `Oc1ccc(/C=C/c2cc(O)cc(O)c2)cc1`, the inhibition entry in [5] is “Active”.
On to `Nc1c2c(nc3ccccc13)CC/C(=C\c1ccco1)C2=O`, for which the values for the inhibition (in data set [2]; in the data set filed under Homo sapiens [3]) were 15.2% and 30.7%, respectively. For the same molecule, the Papp at 10 h, 100 ug/ml in [4] turned out to be 16.2 ×10⁻⁶ cm/s.
Regarding `Nc1c2c(nc3ccccc13)CC/C(=C\c1ccc([N+](=O)[O-])cc1)C2=O`, the values for the inhibition (in [2]; in the data set listed under Homo sapiens [3]) were 2.4% and -3.3%, respectively. The Papp at 10 h, 100 ug/ml in [4] worked out at 11.2 ×10⁻⁶ cm/s.
As for `CN(C)c1ccc2c(c1)Sc1cc(N(C)C)ccc1N2`, in data set [6], the inhibition came to 74.4%.
On to `Nc1c2c(nc3ccccc13)CC/C(=C/c1cccc([N+](=O)[O-])c1)C2=O`, for which the Papp at 10 h, 100 ug/ml in data set [4] is 9.1 ×10⁻⁶ cm/s.
Consider `Nc1c2c(nc3ccccc13)CC/C(=C\c1cccc(Cl)c1)C2=O`, for which the inhibition in [2] is 34.2%; in the data set listed under Homo sapiens [3], -3.1%. The Papp at 10 h, 100 ug/ml in [4] turned out to be 1.1 ×10⁻⁶ cm/s.
On to `Nc1c2c(nc3ccccc13)CC/C(=C\c1cccc([N+](=O)[O-])c1)C2=O`, for which the inhibition in data set [2] stood at 8.2%. In addition, in data set [4], the Papp at 10 h, 100 ug/ml was found to be 3.3 ×10⁻⁶ cm/s.
Regarding `Cc1c2c(nc3ccccc13)CC/C(=C\c1ccccc1)C2=O`, the inhibition in data set [2] was 16.6%; in the data set listed under Homo sapiens [3], 15.7%. For the same molecule, the Papp at 10 h, 100 ug/ml in data set [4] amounted to 3.1 ×10⁻⁶ cm/s.
For `C[n+]1c2c(c(N)c3ccccc31)C(=O)/C(=C\c1cccc(Cl)c1)CC2.[I-]` the same measures were 105%, 15.4% and 4.6 ×10⁻⁶ cm/s.
Regarding `Nc1c2c(nc3ccccc13)CC/C(=C\c1ccccc1)C2=O`, the inhibition in data set [2] worked out at 7.7%; in the data set listed under Homo sapiens [3], 18.7%. Further, the Papp at 10 h, 100 ug/ml in data set [4] stood at 26.4 ×10⁻⁶ cm/s.
For `C[n+]1c2c(c(N)c3ccccc31)C(=O)/C(=C/c1cccc(F)c1)CC2.[I-]` the same measures were 98.7%, 86.3% and 3.6 ×10⁻⁶ cm/s.
The like results for `COc1cccc(/C=C2\CCc3nc4ccccc4c(N)c3C2=O)c1` were, in that order, 7.9%, 44.3% and 7.5 ×10⁻⁶ cm/s.
The like results for `O=C1/C(=C/c2ccc([N+](=O)[O-])cc2)CCc2nc3ccccc3cc21` were, in that order, 2.7%, 6.3% and 3.2 ×10⁻⁶ cm/s.
Consider `Nc1c2c(nc3ccccc13)CC/C(=C\C=C\c1ccccc1)C2=O`, for which the inhibition in data set [2] was 2%; in the data set filed under Homo sapiens [3] it was -3.8%. The Papp at 10 h, 100 ug/ml in data set [4] worked out at 1.3 ×10⁻⁶ cm/s.
As for `Nc1c2c(nc3ccccc13)CC/C(=C/c1ccccc1)C2=O`, the Papp at 10 h, 100 ug/ml in [4] is 13.3 ×10⁻⁶ cm/s.
For the molecule `O=C1/C(=C/c2ccccc2)CCc2nc3ccccc3cc21`, the inhibition in [2] was -3.2%; in the data set filed under Homo sapiens [3], 20.5%. Moreover, the Papp at 10 h, 100 ug/ml in data set [4] was determined as 8.6 ×10⁻⁶ cm/s.
Turning to `Nc1c2c(nc3ccccc13)CC/C(=C/c1cccs1)C2=O`, the inhibition in the data set listed under Homo sapiens [3] is 5.9%. In data set [4], the Papp at 10 h, 100 ug/ml was found to be 10.8 ×10⁻⁶ cm/s.
Consider `C[n+]1c2c(c(N)c3ccccc31)C(=O)/C(=C/c1cccs1)CC2.[I-]`, for which the inhibition in [2] amounted to 99.5%; in the data set filed under Homo sapiens [3], 95.3%. Further, the Papp at 10 h, 100 ug/ml in [4] amounted to 1.7 ×10⁻⁶ cm/s.
For `Nc1c2c(nc3ccccc13)CC/C(=C\c1ccc(Cl)cc1)C2=O`, the inhibition in [2] came out at 24.8%; in the data set filed under Homo sapiens [3], 7.1%. Also, the Papp at 10 h, 100 ug/ml in data set [4] was 30.3 ×10⁻⁶ cm/s.
For `Nc1c2c(nc3ccccc13)CC/C(=C\c1cccs1)C2=O` the same measures were 14.5%, 11.9% and 7.2 ×10⁻⁶ cm/s.
For `O=C1/C(=C/c2cccc(Cl)c2)CCc2nc3ccccc3cc21` the same measures were 46.2%, 4.2% and 2 ×10⁻⁶ cm/s.
For `Nc1c2c(nc3ccccc13)CC/C(=C\c1ccccc1F)C2=O`, the inhibition in data set [2] worked out at 37%; in the data set filed under Homo sapiens [3], 25.3%. In addition, the Papp at 10 h, 100 ug/ml in data set [4] is 6.9 ×10⁻⁶ cm/s.
Turning to `C[n+]1c2c(c(N)c3ccccc31)C(=O)/C(=C/c1cccc3ccccc13)CC2.[I-]`, the inhibition was found to be 86.7% in data set [2], 102% in the data set listed under Homo sapiens [3] and 62.6% in data set [10]. The Papp at 10 h, 100 ug/ml in [4] was determined as 4.6 ×10⁻⁶ cm/s. Also, the inhibition entry (in data set [5]; in the data set filed under Homo sapiens [7]; in data set [8]) was “Active” throughout. Also, the figures for the Kd in data set [9] and in [1] were 16 µM and 33.7 µM, respectively. Also, the Activity result in the data set with HEK-293T is “Non-Toxic”.
`Nc1c2c(nc3ccccc13)CC/C(=C/c1cccc(Cl)c1)C2=O`: the Papp at 10 h, 100 ug/ml in data set [4] is 15.6 ×10⁻⁶ cm/s.
For the molecule `CN(C)c1ccc2nc3ccc(=[N+](C)C)cc-3sc2c1`, the inhibition in the data set listed under Homo sapiens [3] was found to be 80.1%.
As for `C[n+]1c2c(c(N)c3ccccc31)C(=O)/C(=C/c1ccccc1)CC2.[I-]`, the figures for the inhibition (in [2]; in the data set listed under Homo sapiens [3]) were 84.7% and 71.2%, respectively. Further, in data set [4], the Papp at 10 h, 100 ug/ml turned out to be 2.4 ×10⁻⁶ cm/s.
For `O=C1/C(=C/c2ccccc2F)CCc2nc3ccccc3cc21` the same measures were -0.5%, 2.9% and 8.3 ×10⁻⁶ cm/s.
In the case of `Nc1c2c(nc3ccccc13)CC/C(=C/c1cccc(F)c1)C2=O`, the Papp at 10 h, 100 ug/ml in [4] was 20.3 ×10⁻⁶ cm/s.
As to `C[n+]1c2c(c(N)c3ccccc31)C(=O)/C(=C/c1cccc(Cl)c1)CC2.[I-]`, the inhibition was found to be 91.9% in data set [2] and 98.3% in the data set filed under Homo sapiens [3]. The Papp at 10 h, 100 ug/ml in data set [4] is 4.1 ×10⁻⁶ cm/s.
The like results for `C[n+]1c2c(c(N)c3ccccc31)C(=O)/C(=C\c1cccs1)CC2.[I-]` were, in that order, 94.9%, 31.6% and 1.7 ×10⁻⁶ cm/s.
With `Nc1c2c(nc3ccccc13)CC/C(=C/c1cccc3ccccc13)C2=O`, in [2], the inhibition was -6.8%. The Papp at 10 h, 100 ug/ml in [4] stood at 49.5 ×10⁻⁶ cm/s.
For `C[n+]1c2c(c(N)c3ccccc31)C(=O)/C(=C/c1cccc([N+](=O)[O-])c1)CC2.[I-]`, the inhibition was determined as 86.4% in data set [2] and 98.2% in the data set filed under Homo sapiens [3]. Moreover, the Papp at 10 h, 100 ug/ml in data set [4] is 2.1 ×10⁻⁶ cm/s.
For `O=C1/C(=C/c2ccccc2Cl)CCc2nc3ccccc3cc21` the same measures were 3.5%, 14.9% and 7.1 ×10⁻⁶ cm/s.
For `Nc1c2c(nc3ccccc13)CC/C(=C\c1cccc(F)c1)C2=O` the same measures were 20.3%, 4.9% and 5.3 ×10⁻⁶ cm/s.
The like results for `Nc1c2c(nc3ccccc13)CC/C(=C\c1cccc3ccccc13)C2=O` were, in that order, 7.8%, -6.7% and 0.5 ×10⁻⁶ cm/s.
In the case of `C[n+]1c2c(c(N)c3ccccc31)C(=O)/C(=C\c1cccc3ccccc13)CC2.[I-]`, the inhibition in data set [2] is 91.2%; in the data set filed under Homo sapiens [3] it was 79.2%. In data set [4], the Papp at 10 h, 100 ug/ml is 3.5 ×10⁻⁶ cm/s.
